Results on one molecule are retold here after ChEMBL document CHEMBL2040706, “Inhibition of hepatitis C virus NS3 helicase by manoalide” (J Nat Prod, 2012).

Each structure is given as a SMILES string. pIC50: −log10 of the molar value. Active and inactive are the calls of the source. No cut-off for these calls is given here.

The subject of experiment [1] is Hepacivirus hominis. The experiment in a line: Inhibition of HCV NS3 RNA helicase activity using […] as substrate measured every 5 secs for 5 mins and every 30 secs up to 30 mins by photoinduced electron transfer-based fluorescence assay.
Experiment [2] can be described thus: Inhibition of HCV NS3 RNA helicase activity using [32Pgamma]-labelled partial duplex RNA as substrate incubated for 15 mins prior to ATP addition measured after 30 mins by PAGE analysis. Further details: species or system Hepacivirus hominis.
Experiment [3] is described as follows: (§1) Inhibition of HCV NS3 ATPase activity using [32gamma]ATP as substrate after 30 mins by thin layer chromatography analysis in the presence of poly(U)RNA. Also on record: species or system Hepacivirus hominis.
Experiment [4] has as its system Hepacivirus hominis. The experiment is described as §1.
For experiment [5], the system named is Hepacivirus hominis. In words: Noncompetitive inhibition of HCV NS3 ATPase activity using 1 to 8 mM [32gamma]ATP at 0.1 mM by Lineweaver-Burk plot analysis.
Experiment [6] concerns the target T1, ATP-dependent DNA/RNA helicase DHX36 (Homo sapiens) (UniProt Q9H2U1).
T1 sequence (whole entry): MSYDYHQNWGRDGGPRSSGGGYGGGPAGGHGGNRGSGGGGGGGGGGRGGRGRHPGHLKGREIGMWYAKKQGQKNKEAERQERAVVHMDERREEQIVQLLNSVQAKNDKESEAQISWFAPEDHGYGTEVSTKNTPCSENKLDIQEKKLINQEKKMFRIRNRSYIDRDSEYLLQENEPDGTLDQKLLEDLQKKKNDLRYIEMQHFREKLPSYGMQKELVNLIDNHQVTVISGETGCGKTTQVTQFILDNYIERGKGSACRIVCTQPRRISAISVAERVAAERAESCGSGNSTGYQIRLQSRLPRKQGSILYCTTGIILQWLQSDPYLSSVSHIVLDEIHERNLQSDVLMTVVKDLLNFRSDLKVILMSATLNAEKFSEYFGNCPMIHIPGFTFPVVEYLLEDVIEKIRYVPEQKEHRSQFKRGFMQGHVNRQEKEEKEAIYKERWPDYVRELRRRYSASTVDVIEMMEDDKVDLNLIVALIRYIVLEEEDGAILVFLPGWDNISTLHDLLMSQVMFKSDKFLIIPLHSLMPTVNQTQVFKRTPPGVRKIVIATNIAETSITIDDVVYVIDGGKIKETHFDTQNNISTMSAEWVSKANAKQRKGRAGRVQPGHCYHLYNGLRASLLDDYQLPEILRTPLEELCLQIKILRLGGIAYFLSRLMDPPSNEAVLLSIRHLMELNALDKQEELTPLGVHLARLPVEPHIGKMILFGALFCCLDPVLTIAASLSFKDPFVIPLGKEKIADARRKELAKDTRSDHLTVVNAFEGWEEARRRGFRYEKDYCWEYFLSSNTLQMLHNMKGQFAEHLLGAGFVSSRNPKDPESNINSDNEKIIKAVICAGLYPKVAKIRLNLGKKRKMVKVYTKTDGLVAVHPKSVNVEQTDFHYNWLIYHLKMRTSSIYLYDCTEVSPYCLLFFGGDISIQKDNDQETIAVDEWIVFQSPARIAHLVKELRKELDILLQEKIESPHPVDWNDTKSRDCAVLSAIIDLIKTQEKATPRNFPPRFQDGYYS
The experiment in a line: Inhibition of human DHX36/RHAU ATPase activity using [32Pgamma]ATP as substrate for 30 mins in the presence of poly(U)RNA.

In experiment [7] the test system is Hepacivirus hominis. In words: Inhibition of HCV NS3 binding to human 5'-[32Pgamma]-labelled lethal-7 microRNA precursor ssRNA at 0.1 mM after 15 mins by PAGE analysis.
Experiment [8] deals with Hepacivirus hominis. In words: Inhibition of HCV NS3 ATPase activity using [32Pgamma]ATP as substrate at 0.1 mM after 60 mins by thin layer chromatography analysis in the absence of poly(U)RNA.
Experiment [9] concerns Hepacivirus hominis. In words: Binding affinity to HCV NS3 helicase assessed as increase in fluorescence after 15 mins by isothermal denaturation assay.

Consider `CC1=C(CC/C(C)=C/CCC2=CC[C@H](C3=CC(=O)O[C@H]3O)O[C@H]2O)C(C)(C)CCC1` [MANOALIDE], for which the inhibition entry in experiment [1], in [5], in experiment [6], in [7] and in experiment [8] was “Active” throughout. Further, the pIC50 in [2] is 4.82; in experiment [3], 4.15. Also, the inhibition entry in [4] is “Dose-dependent effect”. The Activity result in experiment [9] is “Dose-dependent effect”.
